Literature values, collected in patent publication US6054466A, “Inhibitors of farnesyl-protein transferase” (Merck & Co., Inc., priority 1998, dated 2000).

Tests used:
[1] = system: farnesyl-protein transferase; settings: via HMG-CoA reductase inhibition
Ras processing = settings: by inhibiting the rate-limiting step in the isoprenoid biosynthetic pathway

| Structure (SMILES) | Indirect inhibition of farnesyl-protein transferase in vivo [1] | Block of Ras processing in cells (Ras processing) |
| --- | --- | --- |
| CC[C@H](C)C(=O)O[C@H]1CCC=C2C=C[C@H](C)[C@H](CC[C@@H]3C[C@@H](O)CC(=O)O3)[C@H]21 [compactin] | Indirect inhibition |  |
| CC[C@H](C)C(=O)O[C@H]1C[C@@H](C)C=C2C=C[C@H](C)[C@H](CC[C@@H]3C[C@@H](O)CC(=O)O3)[C@H]21 [lovastatin] | Indirect inhibition | blocks Ras processing in cells |
